Test results as given in article PMC1082716, “Blockade of chemokine-induced signalling inhibits CCR5-dependent HIV infection in vitro without blocking gp120/CCR5 interaction” (Retrovirology, 2005).

Tests used:
[1] = tested on: HIV (IIIb); experiment: HIV (IIIb) infection of Jurkat T-cells, p24gag immunofluorescence; assay type: cell-based; settings: Peptide 3 100 μM, approximately 48 h after infection
Method: HIV infection of Jurkat T-cells was also monitored by high sensitivity quantitative immunofluoresence detection of viral p24^gag expression. Jurkat cells were infected with HIV in the presence or absence of Peptide 3 (100 μM) or SDF1α (100 ng/ml) as described above. Approximately 48 h after infection, the cells were attached to glass slides using a cytospin and then fixed by immersion in ice-cold 70% ethanol for 90 seconds. Expression of p24^gag was determined using quantitative immunofluoresence as previously described, except that the primary antibody was post-fixed to the section using paraformaldehyde to increase the sensitivity of the technique (see Methods). Viral infectivity was expressed as the number of cells stained for p24^gag expressed as a proportion of the total number of cells (detected using Hoechst 33342 nuclear dye). […]
Jurkat cells following HIV infection were attached to 8-well chamber slides (Becton-Dickinson) by spinning the slides using a plate rotor in a Labofuge centrifuge (Heraeus) at 3,000 × g for 5 minutes. […] A threshold was then applied to each image which was the lowest threhold that detected <1% of the pixels of an image of uninfected cells stained under identical conditions. The number of objects exceeding this threshold in each field of view were counted. […]

[2] = tested on: chemokine receptors; settings: ref [27]; cited from earlier work

EICADPKQKWVQ [Peptide 3]
Effect on viral infectivity (p24gag, in words) [1]: no effect | Effect on binding of chemokine ligands to the receptors [2]: do not block
